For one data set, the target named is P2Y purinoceptor 1 (Homo sapiens, UniProt P47900). Kind of data set: Displacement of [beta-33P]-2MeS-ADP from human P2Y1 receptor expressed in HEK293 cells after 1 hr by scintillation counting analysis. It is filed as cell-based.
Data set [1] can be described thus: Antiplatelet activity in human platelet-rich plasma assessed as inhibition of ADP-induced platelet aggregation relative to untreated control. It counts as functional.
A short description of data set [2]: Solubility of the compound at pH 6.5. It counts as physicochemical. The conditions noted are these: buffer.
Data set [3] can be described thus: Antiplatelet activity in human platelet-rich plasma assessed as inhibition of ADP-induced platelet aggregation. It is filed as functional, cell-free.
Data set [4] is described as follows: Lipophilicity, log P of the compound by HPLC analysis. It is filed as physicochemical.
Data set [5] is described as follows: Plasma protein binding in human. It is filed as ADME, cell-free. To be noted: read-out: PPB (converted).

P2Y purinoceptor 1, sequence (P47900 whole entry): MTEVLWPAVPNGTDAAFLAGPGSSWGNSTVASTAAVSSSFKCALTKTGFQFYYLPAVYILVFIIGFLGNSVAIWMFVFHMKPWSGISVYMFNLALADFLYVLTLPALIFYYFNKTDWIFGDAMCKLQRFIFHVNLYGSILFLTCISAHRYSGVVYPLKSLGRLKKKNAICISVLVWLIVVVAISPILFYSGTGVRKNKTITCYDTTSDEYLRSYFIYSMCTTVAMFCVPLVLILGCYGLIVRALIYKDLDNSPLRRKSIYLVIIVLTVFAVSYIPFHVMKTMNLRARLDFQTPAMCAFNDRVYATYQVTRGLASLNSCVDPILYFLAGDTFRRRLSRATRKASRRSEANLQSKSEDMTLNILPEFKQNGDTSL

For orientation: Ki means the equilibrium dissociation constant of an inhibitor or competing ligand from its target. A lower Ki goes with a stronger hold on the target. As for `Cn1nc(Nc2cccnc2Oc2ccccc2C(C)(C)C)cc1-c1ccccc1`, on P2Y purinoceptor 1, the inhibition constant Ki is 45 nM.
Same read-out and setting: to `CC(C)(C)c1ccccc1Oc1ncccc1Nc1nnc(-c2cccnc2)s1` belongs 340 nM.
With `CC(C)(C)c1ccccc1Oc1ncccc1NC(=O)Nc1ccccc1`, the inhibitory constant (Ki) on P2Y purinoceptor 1 amounted to 41 nM. In addition, the “inhibition (INH)” value in data set [1] is reported as 95%.
In the case of `CN(C)Cc1ccc(-c2nnc(Nc3cccnc3Oc3ccccc3C(C)(C)C)s2)cc1`, the inhibition constant (Ki) on P2Y purinoceptor 1 was found to be 250 nM.
In general, solubility refers to how much of the substance goes into solution per volume. High values mean much dissolved substance, low ones little dissolved substance. What is called IC50 is the concentration that inhibits the measured activity by half. As a reminder, the logP is a log measure of how a compound divides between an organic and an aqueous phase. The compound `CC(C)(C)c1ccccc1Oc1ncccc1Nc1nnc(-c2ccc(C(F)(F)F)cc2)s1` came in with a Ki at P2Y purinoceptor 1 of 7 nM. In data set [2], the solubility was below 1 µg/mL. The IC50 in data set [3] came to 7500 nM. The logP in data set [4] is 6.
The compound `Cn1nc(-c2ccccc2)cc1Nc1cccnc1Oc1ccccc1C(C)(C)C` yielded a Ki on P2Y purinoceptor 1 above 36000 nM.
Take `CC(C)(C)c1ccccc1Oc1ncccc1Nc1cc(-c2ccccc2)n[nH]1`: the affinity at P2Y purinoceptor 1, expressed as Ki, was 870 nM.
Still for that read-out and setting: to `CC(C)(C)c1ccccc1Oc1ncccc1Nc1nnc(-c2ccccc2)o1` belongs 70 nM; to `CN(C)c1ccc(-c2nnc(Nc3cccnc3Oc3ccccc3C(C)(C)C)s2)cc1`, 27 nM.
Compound `CC(C)(C)c1ccccc1Oc1ncccc1Nc1cc(-c2ccccc2)on1` had a Ki at P2Y purinoceptor 1 of 19 nM.
`CC(C)(C)c1ccccc1Oc1ncccc1NC(=O)Nc1ccc(C(F)(F)F)cc1` returned a Ki on P2Y purinoceptor 1 of 15 nM. For the same compound, the IC50 in data set [3] worked out at 12600 nM.
With `CN(C)Cc1cccc(-c2nnc(Nc3cccnc3Oc3ccccc3C(C)(C)C)s2)c1`, the Ki at P2Y purinoceptor 1 is 670 nM.
The same measure, in the same setting: to `CC(C)(C)c1ccccc1Oc1ncccc1Nc1ncc(-c2ccccc2)o1` belongs 59 nM; to `CN(C)c1cccc(-c2nnc(Nc3cccnc3Oc3ccccc3C(C)(C)C)s2)c1`, 55 nM; to `CC(C)(C)c1ccccc1Oc1ncccc1Nc1nnc(-c2ccc(OC(F)(F)F)cc2)s1`, 10 nM.
Still for that read-out and setting: the same measure for `CCOC(=O)c1nnc(Nc2cccnc2Oc2ccccc2C(C)(C)C)s1`: 90 nM; for `CC(C)(C)c1ccccc1Oc1ncccc1Nc1nc(-c2ccccc2)ns1`: 25 nM; for `CC(C)(C)c1ccccc1Oc1ncccc1Nc1cc(-c2ccccc2)no1`: 23 nM.
Take `CC(C)(C)c1ccccc1Oc1ncccc1Nc1nnc(-c2ccc3ccccc3c2)s1`: affinity on P2Y purinoceptor 1 was put at a Ki of 18 nM.
The same measure, in the same setting: to `CC(C)(C)c1ccccc1Oc1ncccc1Nc1noc(-c2ccccc2)n1` belongs 410 nM.
Regarding `CC(C)(C)c1ccccc1Oc1ncccc1NC(=O)Nc1ccc(OC(F)(F)F)cc1`, the fraction unbound in data set [5] is 0.007.
Consider `CC(C)(C)c1ccccc1Oc1ncccc1Nc1nnc(-c2ccccn2)s1`, for which the affinity on P2Y purinoceptor 1, expressed as Ki, was 21 nM.
`CC(C)(C)c1ccccc1Oc1ncccc1Nc1nnc(-c2ccncc2)s1` had a Ki on P2Y purinoceptor 1 of 275 nM. Further, the IC50 in data set [3] stood at 29000 nM.
On P2Y purinoceptor 1, `CC(C)(C)c1ccccc1Oc1ncccc1Nc1ncc(-c2ccccc2)s1` yielded a Ki of 15 nM. In data set [4], this compound had a logP of 5.98.
`CC(C)(C)c1ccccc1Oc1ncccc1Nc1nsc(-c2ccccc2)n1` displayed a Ki at P2Y purinoceptor 1 of 1500 nM.
With `CC(C)(C)c1ccccc1Oc1ncccc1Nc1nncs1`, on P2Y purinoceptor 1, the affinity corresponds to a Ki of 2730 nM.
`CC(C)(C)c1ccccc1Oc1ncccc1Nc1nnc(-c2ccccc2)s1` yielded a Ki on P2Y purinoceptor 1 of 11 nM. In addition, the concentration for half-maximal inhibition (IC50) in data set [3] worked out at 13000 nM. Further, in data set [4], the logP is 5.01.
At P2Y purinoceptor 1, `CC(C)(C)c1ccccc1Oc1ncccc1N=C1NCC(c2ccccc2)O1` (stereo not drawn) displayed a Ki of 2500 nM.
On P2Y purinoceptor 1, `CC(C)(C)c1ccccc1Oc1ncccc1Nc1nnc(C(=O)O)s1` came in with a Ki of 2900 nM.

The values are drawn from ChEMBL document CHEMBL2390850, “New azole antagonists with high affinity for the P2Y(1) receptor” (Bioorg Med Chem Lett, 2013).
